# Measured values from paper PMC6277767, “Broad and Region-Specific Impacts of the Synthetic Cannabinoid CP 55,940 in Adolescent and Adult Female Mouse Brains” (Frontiers in Molecular Neuroscience, 2018).
# Tested on: CD1 female mouse brain lipidome
# Experiment: Brain-region lipid levels (HPLC/MS/MS lipidomics) 2 h after single i.p. 3 mg/kg CP 55,940 vs vehicle
# Type: in vivo
# Parameters: N-arachidonoyl phenylalanine level, Mean / N-stearoyl tryptophan level, Mean / N-stearoyl proline level, Mean / N-stearoyl leucine level, Mean / N-stearoyl phenylalanine level, Mean / N-stearoyl serine level, Mean / N-stearoyl methionine level, Mean: unit: moles per gram
# Description: The Bloomington Institutional Animal Care and Use Committee of Indiana University reviewed and approved the animal procedures. Female mice from the CD1 strain were utilized to match our study examining THC’s effects on the brain lipidome ([Leishman et al., 2018]). Mice were given a single i.p. injection of either 3 mg/kg CP or 1:1:18 cremophor:ethanol:saline vehicle (please refer to the section “3 mg/kg CP Is Relevant for Synthetic Cannabinoid Abuse and Has Stronger Effects on the Female Mouse Brain Lipidome During Adolescence” for a justification of dose and use of female mice). Three different age groups were given injections: PND 35 and PND 50 adolescents, and adult mice (PND 113). At least eight mice in each age group received CP and at least eight received vehicle. Matching the THC study time course ([Leishman et al., 2018]), mice were sacrificed via rapid decapitation 2 h after injection. Brains were immediately removed and flash-frozen in liquid nitrogen, and then stored at -80°C until dissections were performed. Brains were dissected on an ice-cold dissection plate into the following regions: STR, HIPP, CER, THAL, CTX, HYP, MID, and STEM. These abbreviations for these brain areas will be used exclusively when discussing the results generated by these specific dissections. Each dissected area was immediately placed in liquid nitrogen and then stored at -80°C until used for lipid extraction.
# Tissue extracts were performed as previously described ([Bradshaw et al., 2006]; [Stuart et al., 2013]; [Raboune et al., 2014]; [Leishman et al., 2016a],[b], [2017], [2018]). First, samples were shock frozen in liquid nitrogen, weighed, and transferred to a centrifuge tube. The mass of the largest sample was multiplied by 50 to determine how many milliliters of HPLC-grade methanol (Fisher, Fair Lawn, NJ, United States) to add. Then, samples were spiked with 500 pmol deuterium-labeled NAGly (d8NAGly; Cayman Chemical, Ann Arbor, MI, United States). Samples were placed on ice in darkness for 2 h then individually homogenized and centrifuged at 19,000 × g for 20 min at 20°C. Supernatants were diluted with HPLC water (purified in house) to make a solution of 75% water, 25% supernatant. Lipids were partially purified on C18 solid phase extraction columns (Agilent, Palo Alto, CA, United States). A series of four elutions with 1.5 mL of 60%, 75%, 85%, and 100% methanol were collected ([Stuart et al., 2013]; [Leishman et al., 2016a],[b], [2018]).
# As previously described ([Bradshaw et al., 2006]; [Tan et al., 2006]; [Smoum et al., 2010]; [Stuart et al., 2013]; [Tortoriello et al., 2013]; [Raboune et al., 2014]; [Leishman et al., 2016a],[b], [2017], [2018]), samples were analyzed using an Applied Biosystems API 3000 triple quadrupole mass spectrometer with electrospray ionization (Foster City, CA, United States). Using an Agilent XDB-C18 reversed phase analytical column and optimized mobile phase gradients, 20 μL from each elution were chromatographed. Two Shimadzu 10ADvp pumps (Columbia, MD, United States) provided the pressure for gradient elution. Mobile phase A: 20% methanol, 80% water (v/v) and 1 mM ammonium acetate (Sigma, St. Louis, MO, United States). Mobile phase B: 100% methanol, 1 mM ammonium acetate. Every method run began with 0% mobile phase B, reached 100% mobile phase B flowing at 0.2 mL/min, and gradually returned to 0% mobile phase B.
# This screening library will be referred to as the lipidome when discussing data from this study. HPLC/MS/MS data were analyzed using Analyst software (Applied Biosystems) ([Bradshaw et al., 2006]; [Tan et al., 2006]; [Stuart et al., 2013]; [Tortoriello et al., 2013]; [Raboune et al., 2014]; [Leishman et al., 2016a],[b], [2017], [2018]). Chromatograms (Supplementary Figure 3) were generated by determining the retention time of analytes from the analytical column with a [M-1] or [M+1] parent peak and a fragmentation peak corresponding to the programmed values. […]
# [1] = adult brainstem, 3mg/kg CP 55,940
smiles,measurement,setting,value
"CCCCCCC(C)(C)c1ccc([C@@H]2C[C@H](O)CC[C@H]2CCCO)c(O)c1 [CP 55,940]",N-stearoyl serine level vs vehicle,adult HIPP,↓ (1-1.49 times lower than vehicle)
same,PGE2 level vs vehicle,adult HIPP,↑ (1-1.49 times higher than vehicle)
same,PGE2 mean level in CP group divided by vehicle group,adult HIPP,1.18
same,PGF2α level vs vehicle,adult HIPP,↑ (1-1.49 times higher than vehicle)
same,number of lipids changed,adult HIPP,12
same,phosphoLEA level vs vehicle,adult HIPP,↑ (1-1.49 times higher than vehicle)
same,PGE2 mean level,"adult HIPP, CP group",3.37x10^-10 moles per gram
same,6-ketoPGF1α level vs vehicle,adult HYP,↓↓ (1.50-1.99 times lower than vehicle)
same,N-arachidonoyl GABA level vs vehicle,adult HYP,↓ (1-1.49 times lower than vehicle)
same,N-arachidonoyl taurine level vs vehicle,adult HYP,↑ (1-1.49 times higher than vehicle)
same,N-palmitoyl phenylalanine level vs vehicle,adult HYP,↑↑ (1.50-1.99 times higher than vehicle)
same,PGE2 level vs vehicle,adult HYP,↑ (1-1.49 times higher than vehicle)
same,PGF2α level vs vehicle,adult HYP,↓ (1-1.49 times lower than vehicle)
same,number of lipids changed,adult HYP,7
same,phosphoLEA level vs vehicle,adult HYP,↓ (1-1.49 times lower than vehicle)
same,2-arachidonoyl glycerol level vs vehicle,adult MID,↓ (1-1.49 times lower than vehicle)
same,2-linoleoyl glycerol level vs vehicle,adult MID,↓ (1-1.49 times lower than vehicle)
same,2-oleoyl glycerol level vs vehicle,adult MID,↓ (1-1.49 times lower than vehicle)
same,6-ketoPGF1α level vs vehicle,adult MID,↑ (1-1.49 times higher than vehicle)
same,Arachidonic acid level vs vehicle,adult MID,↓ (1-1.49 times lower than vehicle)
same,N-arachidonoyl ethanolamine level vs vehicle,adult MID,↓ (1-1.49 times lower than vehicle)
same,N-arachidonoyl serine level vs vehicle,adult MID,↓↓ (1.50-1.99 times lower than vehicle)
same,N-linoleoyl glycine level vs vehicle,adult MID,↓↓ (1.50-1.99 times lower than vehicle)
same,N-linoleoyl serine level vs vehicle,adult MID,↓ (1-1.49 times lower than vehicle)
same,N-palmitoyl ethanolamine level vs vehicle,adult MID,↓ (1-1.49 times lower than vehicle)
same,N-stearoyl ethanolamine level vs vehicle,adult MID,↑ (1-1.49 times higher than vehicle)
same,PGE2 level vs vehicle,adult MID,↑ (1-1.49 times higher than vehicle)
same,changes in lipid levels that were decreases,adult MID,10
same,changes in lipid levels that were increases,adult MID,3
same,percentage of lipids detected that decreased,adult MID,18.52%
same,percentage of lipids detected that increased,adult MID,5.55%
same,phosphoLEA level vs vehicle,adult MID,↓ (1-1.49 times lower than vehicle)
same,number of lipids changed,"adult MID, 54 detected",13
same,2-arachidonoyl glycerol level vs vehicle,adult STEM,↓ (1-1.49 times lower than vehicle)
same,2-linoleoyl glycerol level vs vehicle,adult STEM,↓ (1-1.49 times lower than vehicle)
same,2-oleoyl glycerol level vs vehicle,adult STEM,↓ (1-1.49 times lower than vehicle)
same,2-palmitoyl glycerol level vs vehicle,adult STEM,↓ (1-1.49 times lower than vehicle)
same,Arachidonic acid level vs vehicle,adult STEM,↓ (1-1.49 times lower than vehicle)
same,Linoleic acid level vs vehicle,adult STEM,↓ (1-1.49 times lower than vehicle)
same,N-arachidonoyl taurine level vs vehicle,adult STEM,↓ (1-1.49 times lower than vehicle)
same,N-arachidonoyl tyrosine level vs vehicle,adult STEM,↓↓ (1.50-1.99 times lower than vehicle)
same,N-oleoyl ethanolamine level vs vehicle,adult STEM,↓ (1-1.49 times lower than vehicle)
same,N-palmitoyl leucine level vs vehicle,adult STEM,↑ (1-1.49 times higher than vehicle)
same,N-palmitoyl valine level vs vehicle,adult STEM,↑ (1-1.49 times higher than vehicle)
same,Oleic Acid level vs vehicle,adult STEM,↓ (1-1.49 times lower than vehicle)
same,PGE2 level vs vehicle,adult STEM,↓ (1-1.49 times lower than vehicle)
same,number of lipids changed,adult STEM,13
same,2-arachidonoyl glycerol level vs vehicle,adult STR,↓ (1-1.49 times lower than vehicle)
same,Arachidonic acid level vs vehicle,adult STR,↓ (1-1.49 times lower than vehicle)
same,N-arachidonoyl ethanolamine level vs vehicle,adult STR,↓↓ (1.50-1.99 times lower than vehicle)
same,N-docosahexaenoyl ethanolamine level vs vehicle,adult STR,↓ (1-1.49 times lower than vehicle)
same,N-linoleoyl ethanolamine level vs vehicle,adult STR,↓ (1-1.49 times lower than vehicle)
same,N-oleoyl ethanolamine level vs vehicle,adult STR,↓↓ (1.50-1.99 times lower than vehicle)
same,N-oleoyl leucine level vs vehicle,adult STR,↑ (1-1.49 times higher than vehicle)
same,N-palmitoyl serine level vs vehicle,adult STR,↓ (1-1.49 times lower than vehicle)
same,number of lipids changed,adult STR,8
same,2-arachidonoyl glycerol level vs vehicle,adult THAL,↓ (1-1.49 times lower than vehicle)
same,2-linoleoyl glycerol level vs vehicle,adult THAL,↓ (1-1.49 times lower than vehicle)
same,6-ketoPGF1α level vs vehicle,adult THAL,↑ (1-1.49 times higher than vehicle)
same,Arachidonic acid level vs vehicle,adult THAL,↓ (1-1.49 times lower than vehicle)
same,N-arachidonoyl GABA level vs vehicle,adult THAL,↓ (1-1.49 times lower than vehicle)
same,N-arachidonoyl alanine level vs vehicle,adult THAL,↓↓ (1.50-1.99 times lower than vehicle)
same,N-arachidonoyl ethanolamine level vs vehicle,adult THAL,↓ (1-1.49 times lower than vehicle)
same,N-arachidonoyl glycine level vs vehicle,adult THAL,↓↓ (1.50-1.99 times lower than vehicle)
same,N-oleoyl ethanolamine level vs vehicle,adult THAL,↓ (1-1.49 times lower than vehicle)
same,N-palmitoyl GABA level vs vehicle,adult THAL,↑ (1-1.49 times higher than vehicle)
same,N-palmitoyl ethanolamine level vs vehicle,adult THAL,↓ (1-1.49 times lower than vehicle)
same,N-palmitoyl leucine level vs vehicle,adult THAL,↑ (1-1.49 times higher than vehicle)
same,N-palmitoyl methionine level vs vehicle,adult THAL,↑ (1-1.49 times higher than vehicle)
same,N-palmitoyl valine level vs vehicle,adult THAL,↑↑ (1.50-1.99 times higher than vehicle)
same,Oleic Acid level vs vehicle,adult THAL,↓ (1-1.49 times lower than vehicle)
same,number of lipids changed,adult THAL,15
same,changes in PG levels,adult brain,14
same,changes in lipoamines derived from AA,adult brain,20
same,decreases in 2-acyl glycerol levels,adult brain,15
same,decreases in PG levels,adult brain,8
same,decreases in free fatty acid levels,adult brain,11
same,increases in PG levels,adult brain,6
same,percentage of detected lipids modified with acute CP,"adult brain, 406 detected",23.89%
same,"2-arachidonoyl glycerol, Direction (relative to Veh)",[1],↓
same,"2-arachidonoyl glycerol, Magnitude (x Veh level)",[1],0.78 x Veh level
same,2-linoleoyl glycerol Direction (relative to Veh),[1],↓
same,2-linoleoyl glycerol Magnitude (x Veh level),[1],0.76 x Veh level
same,"2-oleoyl glycerol, Direction (relative to Veh)",[1],↓
same,"2-oleoyl glycerol, Magnitude (x Veh level)",[1],0.82 x Veh level
same,"2-palmitoyl glycerol, Direction (relative to Veh)",[1],↓
same,"2-palmitoyl glycerol, Magnitude (x Veh level)",[1],0.80 x Veh level
same,"Arachidonic acid, Direction (relative to Veh)",[1],↓
same,"Arachidonic acid, Magnitude (x Veh level)",[1],0.86 x Veh level
same,"Linoleic acid, Direction (relative to Veh)",[1],↓
same,"Linoleic acid, Magnitude (x Veh level)",[1],0.71 x Veh level
same,"N-arachidonoyl GABA level, Mean",[1],1.08E-11
same,"N-arachidonoyl alanine level, Mean",[1],9.45E-13
same,"N-arachidonoyl dopamine level, Mean",[1],BDL
same,"N-arachidonoyl ethanolamine level, Mean",[1],1.14E-11
same,"N-arachidonoyl glycine level, Mean",[1],1.87E-12
same,"N-arachidonoyl phenylalanine level, Mean",[1],5.84E-14
same,N-arachidonoyl taurine Direction (relative to Veh),[1],↓
same,N-arachidonoyl taurine Magnitude (x Veh level),[1],0.94 x Veh level
same,"N-arachidonoyl tyrosine, Direction (relative to Veh)",[1],↓
same,"N-arachidonoyl tyrosine, Magnitude (x Veh level)",[1],0.66 x Veh level
same,"N-docosahexaenoyl GABA level, Mean",[1],7.61E-12
